Our source for the Kd values is publication PMC4079544, “A Linear Relationship between Crystal Size and Fragment Binding Time Observed Crystallographically: Implications for Fragment Library Screening Using Acoustic Droplet Ejection” (PLoS ONE, 2014).

By Kd is commonly meant the equilibrium constant for the complex coming apart. A high value points to weaker binding.

For the test, the target named is T1, Lysozyme (Gallus gallus, UniProt P00698).
T1 construct: gene LYZ
Briefly: X-ray crystallography of soaked crystals ([…] data sets), ligand occupancy vs soak time; Kd^cryst from fitted Omax. Type of test: binding.

T1 sequence (P00698 19-147): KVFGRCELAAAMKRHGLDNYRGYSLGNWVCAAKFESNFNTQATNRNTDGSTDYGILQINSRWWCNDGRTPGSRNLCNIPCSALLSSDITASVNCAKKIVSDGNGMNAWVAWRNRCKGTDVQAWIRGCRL

The compound `CC(=O)N[C@H]1C(O)O[C@H](CO)[C@@H](O)[C@@H]1O` (stereo partly shown) [NAG, N-acetyl glucosamine] had a Kd of 5.4 mM.
